Data set [1] relates to RPMI-8226, KMS-12-BM and NCI-H929 cells. Put plainly: Cell viability by flow cytometry of 7-AAD stained cells, gapmer versus single miRNA inhibitors. Format: cell-based, Human. To be noted: transfection with 25 nM. How it is done:
Commercial miRNA inhibitors for miR-17a, miR-18a, miR-19a, miR-19b, miR-20a and miR-92a were purchased from Ambion (Applied Biosystems, Calif., U.S.).
3×10^5 cells were transfected using Neon Transfection System (Invitrogen, Calif.,U.S.), (2 pulses at 1150, 30ms). The transfection efficiency evaluated by flow-cytometric analysis relative to a FAM dye—labeled anti-miR—negative control reached 85% to 90%.
7-aminoactinomycin was used to evaluate cell viability. The staining was performed according to manufacturer's instructions.
To this aim, we transfected three different MM cell lines with 25 nM of either gapmer_06 or miRNA inhibitors from Ambion or RNase free water as control.

Data set [2] concerns miR-17-92 primary transcripts and mature miRNA family members. Put plainly: q-RT-PCR after transfectant reagents-free (gymnotic) exposure. To be noted: six days gymnotic exposure, 1 and 2,5 μM; two MM cell lines (NCI-H929); vs saline vehicle. In kind it is cell-based, Human. How it is done:
Cells were seeded at low plating density in order to reach confluence on the final day of the experiments (day 6). Cell number at plating ranged from 0.5 to 2.5×10^3 in 96-well plates, from 2.5 to 10×10^3 in 12-well plates and from 1 to 3×10^4 in 6-well plates.
The LNA/DNA Gapmers were used at concentrations ranging from 0.1 to 20 μM.
Reverse transcription (RT) of both primary and mature miRNAs was performed using TaqMan® MicroRNA Assays, following a procedure for multiplexing the RT step (Life Technologies, Publication Part Number 4465407). Briefly, 500 ng of total RNA, prepared with the TRIzol® Reagent (Invitrogen), underwent reverse transcription by the Taq-Man® MicroRNA RT Kit. In this reaction, the RT primer pool was composed by the individual RT primers for each microRNA belonging to the miR-17-92 cluster and two RT primers to allow the reverse transcription of the miR-17-92 primary miRNA. Real-time PCR was performed using TaqMan® MicroRNA Assays together with the TaqMan® Universal PCR Master Mix on an ViiA7 System (Life Technologies). Both primary and mature microRNAs expressions were relatively quantified using the 2-ΔΔCt method (Applied Biosystems User Bulletin No. 2), and expressed as the relative quantity of target miRNA normalized to the RNU44 (assay ID 001094) housekeeping gene. […] Relative expression was calculated using the comparative cross threshold (Ct) method.

A further data set has as its system INA-6 cells. Put plainly: INA-6 SCID-hu model, serum shuIL-6R. In kind it is in vivo, mice. The settings on record: I.P. 2 mg/kg at day 1-4-8-15-22; compared to controls. How it is done: The SCID-hu model was performed implanting human fetal long bone grafts sc into SCID mice (SCID-hu). Four weeks following bone implantation, 2.5×10^6 INA-6 multiple myeloma cells were injected directly into the human bone implant. Because INA-6 cells release soluble human IL-6 receptor (shuIL-6R), we used this marker to monitor tumor growth in SCID-hu mice.
Mouse sera were serially monitored for shulL-6R levels by ELISA (Quantikine […]; R&D Systems). Mice developed detectable serum shuIL-6R ˜4 weeks following INA-6 cell injection and then were […]. Three days after the last injection, blood samples were collected and analyzed (R&D Systems).
The in vivo activity of gapmer_06 was also evaluate in a orthotopic model of human MM using U266 cells, to explore the efficacy in relation to the microenvironment. Orthotopic murine model was performed by the use of NOD/SCID mice intravenously injected with luciferase gene-marked U266 cells. Tumor growth was monitored using IVIS LUMINA II Imaging System. […] Engraftment was determined by sacrificing mice after 10 weeks and analyzing bone marrow for luciferase gene-marked U266 cells. […] Mice were treated I.P. with gapmer_06 at concentration of 2 mg/kg at day 1-4-8-15-22, and serum shulL-6R levels were serially determined as a marker of tumor growth.

A further data set concerns AMO1 xenografts. Put plainly: In vivo tumor growth of AMO1 xenografts (IVIS). Further details: species or system mice. The settings on record: I.P. 2 mg/kg at day 1-4-8-15-22. From the text:
(§1) Male CB-17 severe combined immunodeficient (SCID) mice (6- to 8-weeks old; Harlan Laboratories, Inc., Indianapolis) were housed and monitored in our Animal Research Facility. All experimental procedures and protocols had been approved by the Institutional Ethical Committee (Magna Graecia University) and conducted according to protocols approved by the National Directorate of Veterinary Services (Italy). In accordance with institutional guidelines, mice were sacrificed when tumors reached 2 cm in diameter or in the event of paralysis or major compromise, to prevent unnecessary suffering. Animal experimental procedures have been performed as in previous reports (Di Martino et al, CCR 2012; Di Martino el al. Oncotarget 2013, Di Martino et al PlosOne 2014). […] Mice were also inoculated with 5×10^6 luciferase gene-marked U266, AMO-1, AMO-1/abzb, treatments were performed intraperitoneally (i.p.), and tumor volume were measured by IVIS Lumina II.
(§2) In vivo anti-MM activity of LNA gapmer_06 was next evaluated in NOD/SCID mice bearing subcutaneous AMO1 xenografts. […] Tumors volume were measured using IVIS LUMINA II Imaging We next evaluate the in vivo activity in Bortezomib-refractory model of human MM. […] Tumors volume were measured using IVIS LUMINA II Imaging System.

For another data set, the system named is AMO1/abzb xenografts. Put plainly: In vivo tumor growth of Bortezomib-refractory AMO1/abzb xenografts (IVIS). Further details: species or system mice. The settings on record: I.P. 2 mg/kg at day 1-4-8-15-22; Bortezomib-refractory model.
Text: as §1, §2

l = locked nucleic acid (LNA); d = 2'-deoxy (DNA)

Turning to “gapmer_06: LNA/DNA gapmer, SEQ ID 4 (14 mer): +T*+A*+C*T*T*G*C*T*T*G*G*+C*+T*+T; + LNA, * phosphorothioate (antisense TACTTGCTTGGCTT; sugars from the 5' end l3 d8 l3, all phosphorothioate, methylation of C not given here)”, the “biological effect on cell viability (flow cytometry, 7-AAD) compared with single miRNA inhibitors” value in data set [1] is given as “strongest biological effects”. Moreover, in data set [2], the “downregulation of primary transcript and mature single miRNAs (q-RT-PCR)” value was “downregulation of primary transcript as well as mature single miRNAs, in a dose dependent manner”. In the data set on INA-6 cells, the “tumor growth (serum shuIL-6R levels)” value is listed as “significant tumor-growth inhibition”. The “tumor-growth inhibition relative to Bortezomib 1 mg/kg” value with AMO1 xenografts is recorded as “almost comparable to Bortezomib effect”. Further, the “tumor growth (IVIS tumor volume)” value in the data set on AMO1 xenografts (vs NaCl control) and with AMO1/abzb xenografts was “significant tumor-growth inhibition” each time.

For the origin of these results see patent US20180051284A1, “INHIBITORS OF MIR-17-92 CLUSTER FOR ANTI-TUMOR ACTIVITY IN MULTIPLE MYELOMA AND OTHER MALIGNANCIES” (priority 2014, published 2018).
